According to patent publication US7763287B2, “Extract of Cercis chinensis having anti-oxidant activity and anti-aging activity, and cosmetical composition containing the extract for anti-oxidation, skin-aging protection and wrinkle improvement” (Hankook Pharm. Co., Inc., priority 2002, dated 2010):

Experiments:
[1] = DPPH radical scavenging activity; type: biochemical; settings: for DPPH radical scavenging activity IC50: Table 3
Description: In order to extract an effective ingredient having an anti-oxidant activity from Cercis chinensis, an experiment was performed following the procedure represented in a schematic diagram of FIG. 1. Particularly, 1 kg of leaves and stems of Cercis chinensis, dried in shadow, were grinded to powder using a pulverizer, which was extracted by ethanol (EtOH) at room temperature twice at intervals of two weeks. For the extraction, ethanol solutions were prepared by adding ethanol gradually, 10% at a time, from 0% to 100%. The prepared ethanol solutions were used for the extraction. […] But, it looses absorbance when being scavenged. Based on that point, an anti-oxidant activity can be measured using DPPH. […] Then, each solution was distributed into a 96 well plate by 10 μl each, into which 190 μl of DPPH(Sigma, St. Louis, Mo, USA) solution whose ethanol concentration was 2×10^−4 M/ml was added. The plate was just left at room temperature for 30 minutes. Finally, OD517 was measured at 517 nm. For a control, DMSO was added instead of the sample, and changes of optical density were investigated. […] DDPH Radical Scavenging Activity (%)=(Acontrol−Asample)/(Acontrol)×100 <Mathematica Formula 1>
Acontrol: Optical density of control group (sample was not added),
Asample: Optical density of experimental group (sample was added).
In order to identify a fraction having an anti oxidant activity among hexane Fr, EtOAc Fr and BuOH Fr obtained above, a DPPH radical scavenging activity was measured using each extract of each fraction following the method used above. At this time, vitamin E, known to have high DPPH radical scavenging activity, was used as a comparing group.
At this time, BHA (tert-butyl-4 hydroxyanisole) and α-tocopherol, synthetic anti-oxidant agents, were used as positive controls.

rat brain homogenates = assay: Lipid peroxidation inhibitory activity (Fe2+/ascorbic acid, TBA method); settings: Table 4
[2] = Nitric oxide scavenging activity; type: biochemical; parameters: Nitric oxide scavenging activity (%): concentration or dose not given beside the values
[3] = Superoxide radical scavenging activity (xanthine/xanthine oxidase, NBT); type: biochemical; settings: Table 6
Description: Superoxide radical (O^2−) itself has a little reactivity, but is easily changed into H2O2 that generates hydroxyl radical having strong reactivity or is reacted with nitric oxide (NO.) to generate peroxy nitrite (ONOO^−) having strong reactivity, too. Thus, it might be a reason for oxidation of SH-group, nitration of protein tyrosine, lipid peroxidation and DNA damage. […] Basically, measurement of superoxide radical scavenging activity was performed by investigating the activity of superoxide dismutase (SOD), an enzyme scavenging superoxide by dismutation of the same. In the present invention, an activity of a sample to inhibit superoxide production by the enzyme reaction of xanthine/xanthine oxidase and its another activity to inhibit reaction (NBT+20^2−→NBTH2+2O2) generating formazan by reduction of nitro blue tetrazolium (referred as ‘NBT’ hereinafter) were measured. Particularly, wells of a 96-well plate were supplemented with 50 μl of 4 mM xanthine (Sigma), 50 μl of […] NBT (Sigma), 50 μl of 50 mM phosphate buffer (pH 7.8, 1 mM EDTA) and 10 μl of each sample, into which 40 μl of xanthine oxidase was added to induce a reaction. After the reaction was completed, each reaction solution was collected as scheduled, and OD550 was measured with an ELISA reader. […] Superoxide Radical Scavenging Activity (%)=(Acontrol−Asample)/(Acontrol−Ablank)×100 <Mathematical Formula 4> […]

[4] = Hydroxyl radical scavenging activity (deoxyribose/TBA, method of Halliwell); type: biochemical; settings: for Hydroxyl radical scavenging activity (%): 10 μg of sample, total volume 1 ml
Description: Hydroxyl radical (HO.) is generated by the reaction of a metal ion or a superoxide radical. Owing to its strong reactivity, hydroxyl radical causes oxidative damages to DNA, protein and lipid in vivo. Nitric oxide (NO.) is reacted with a superoxide radical to generate a peroxy nitrite (ONOO—), also having strong reactivity. […] Particularly, each compound was mixed with 10 μg of a sample dissolved in DMSO, phosphate buffer (20 mM, pH 7.4) 5.6 mM deoxyribose, 0.1 mM FeCl3, 1 mM H2O2 and 0.1 mM ascorbic acid, making total volume 1 ml, which was then reacted at 37° C. for 60 minutes. 250 μl of 20% TCA and 250 μl of 1% TBA solution (dissolved in 50 mM NaOH) were added to the reaction solution, followed by thermal reaction at 95° C. for 5 minutes. After completing the reaction, OD532 was measured. Hydroxyl radical scavenging activity was calculated by the below
<Mathematical Formula 3>. BHA and α-tocopherol were used for a positive control. Hydroxyl Radical Scavenging Activity (%)=(Acontrol−Asample)/(Acontrol−Ablank)×100 <Mathematical Formula 3>
Acontrol: Optical density of control group well (sample was not added),
Asample: Optical density of experimental group well (sample was added),
Ablank: Optical density of well not added with sample, TCA and TBA

HEK-N/F cells = assay: Protection of cells from oxidative damage induced by t-butylhydroperoxide; type: cell-based, human; settings: 1.5 mM t-butylhydroperoxide 3 hours; for TBARS (pmol/mg protein): compound 50.0 µg/ml
Description: t-butylhydroperoxide is metabolized into a free radical intermediate as it comes in a cell, so that it causes lipid peroxidation, resulting in cell damage. This phenomenon is similar to that caused by oxidataive stress accumulated in cells and tissues. […] HEK-N/F, an epidermal cell line of a newborn baby, was treated with 1.5 mM of t-butylhydroxyperoxide for 3 hours.

Row | Compound | DPPH radical scavenging activity IC50 [1] [µg/mL] | Lipid Peroxidation Inhibitory Activity IC50 (rat brain homogenates) [µg/mL] | Nitric oxide scavenging activity (%) [2] [%] | Superoxide radical scavenging activity IC50 [3] [µg/mL] | Hydroxyl radical scavenging activity (%) [4] [%] | Cell survival rate (%) (HEK-N/F cells) | TBARS (pmol/mg protein) (HEK-N/F cells) | Hydroxyl radical scavenging activity (in words) [4] | DPPH radical scavenging IC50 ([1]; fractions of the 60% ethanol extract) [µg/mL]
1 | COc1cc(C2c3c(cc(OC)c(O)c3OC)CC(CO)C2CO[C@@H]2O[C@H](CO)[C@@H](O)[C@H](O)[C@H]2O)cc(OC)c1O (single isomer, unassigned; (+)) [Chemical Formula 20, (+)-lyoniresiol 3a-O-β-D-glucopyranoside] | 42.6 ± 3.1 | 39.10 ± 3.11 | 0.8 ± 0.8 | >100 | 8.1 | 12.9 ± 2.1 | 7635.7 ± 631.2 |  | 
2 | COc1cc(C2c3c(cc(OC)c(O)c3OC)CC(CO)C2CO[C@@H]2OC[C@@H](O)[C@H](O)[C@H]2O)cc(OC)c1O (single isomer, unassigned; (-)) [Chemical Formula 19, (−)-lyoniresinol 3a-O-β-D-xylopyranoside] | 45.7 ± 4.0 | 37.42 ± 2.06 | 0.8 ± 0.6 | >100 | 7.3 | 13.5 ± 2.0 | 5981.1 ± 412.6 |  | 
3 | O=C(O)/C=C/c1ccc(O)c(O)c1 [Caffeic acid, caffeic acid, reference compound] |  |  |  | 11.0 ± 1.8 |  |  |  |  | 
4 | O=C(/C=C/c1ccc(O)cc1)c1ccc(O)cc1O [Chemical Formula 1, isoliquiritigenin] |  | 3.33 ± 0.50 |  |  |  | 13.9 ± 12.6 | 5118.1 ± 410.5 |  | 
5 | COc1ccc(/C=C/C(=O)c2ccc(O)cc2O)cc1 [Chemical Formula 2, 2′,4′-dihydroxy-4-methoxychalcone] | >50 | 12.81 ± 1.86 |  | 49.8 ± 3.1 | 4.5 | 16.2 ± 3.2 | 3449.7 ± 305.8 |  | 
6 | O=C1C[C@@H](c2ccc(O)cc2)Oc2cc(O)ccc21 [Chemical Formula 3, liquiritigenin] | >50 | 6.05 ± 0.99 |  | 59.2 ± 3.8 | 3.2 | 12.1 ± 1.0 | 8255.1 ± 576.4 |  | 
7 | Oc1ccc(C=Cc2cc(O)cc(O)c2)cc1 [Chemical Formula 4, resveratrol] |  | 0.89 ± 0.10 |  |  |  | 18.1 ± 1.6 | 2792.4 ± 259.1 |  | 
8 | O=C(O)c1cc(O)c(O)c(O)c1 [Chemical Formula 6, gallic acid] | 5.1 ± 0.4 | 6.80 ± 0.63 | 25.0 ± 2.0 |  | 33.6 | 41.5±3.1 | 1245.7 ± 112.4 |  | 
9 | COC(=O)c1cc(O)c(O)c(O)c1 [Chemical Formula 7, methyl gallate] | 5.3 ± 0.3 | 7.05 ± 0.87 | 32.6 ± 2.8 | 16.5 ± 1.4 | 43.8 | 43.0±5.6 | 1024.4 ± 91.9 | remarkably higher hydroxyl radical scavenging activities | 
10 | CCOC(=O)c1cc(O)c(O)c(O)c1 [Chemical Formula 8, ethyl gallate] | 7.0 ± 1.0 | 7.01 ± 0.62 | 33.4 ± 2.1 | 15.8 ± 1.6 | 44.0 | 43.1±4.1 | 1115.6 ± 96.2 | remarkably higher hydroxyl radical scavenging activities | 
11 | C[C@@H]1O[C@@H](Oc2c(-c3ccc(O)cc3)oc3cc(O)cc(O)c3c2=O)[C@H](O)[C@H](O)[C@H]1O [Chemical Formula 10, afzelin] |  |  |  |  |  | 16.8 ± 1.3 | 3295.1 ± 304.5 |  | 
12 | C[C@@H]1O[C@@H](Oc2c(-c3ccc(O)c(O)c3)oc3cc(O)cc(O)c3c2=O)[C@H](O)[C@H](O)[C@H]1O [Chemical Formula 11, quercitrin] |  |  |  |  |  |  | 2217.2 ± 200.3 |  | 
13 | CC1OC(Oc2c(-c3cc(O)c(O)c(O)c3)oc3cc(O)cc(O)c3c2=O)C(OC(=O)c2cc(O)c(O)c(O)c2)C(O)C1O [Chemical Formula 13, myricetin-3-O-(2″-O-galloyl)-α-L-rhamnopyranoside] | 8.6 ± 0.7 | 4.73 ± 0.41 | 23.0 ± 0.6 | 13.2 ± 2.5 | 45.4 | 45.1 ± 3.6 | 1019.8 ± 154.0 | remarkably higher hydroxyl radical scavenging activities | 
14 | COc1cc(-c2oc3cc(O)cc(O)c3c(=O)c2O[C@@H]2O[C@H](CO[C@@H]3O[C@@H](C)[C@H](O)[C@@H](O)[C@H]3O)[C@@H](O)[C@H](O)[C@H]2OC(=O)c2cc(O)c(O)c(O)c2)cc(OC)c1O [Chemical Formula 15, syringetin-3-O-(2″-O-galloyl)-rutinoside] | 29.2 ± 1.8 | 10.10 ± 1.02 | 14.1 ± 1.4 | 37.1 ± 2.0 | 16.4 |  |  |  | 
15 | Cc1c(C)c2c(c(C)c1O)CC[C@@](C)(CCC[C@H](C)CCC[C@H](C)CCCC(C)C)O2 [α-tocopherol, reference compound] | 25.4 ± 0.9 | 6.61 ± 0.95 |  |  | 0.8 |  |  |  | 
16 | tert-butyl-4-hydroxyanisole [BHA, reference compound] | 15.3 ± 0.6 | 0.11 ± 0.02 |  | 48.8 ± 2.5 | 15.6 |  |  |  | 
17 | vitamin E [reference compound] |  |  |  |  |  |  |  |  | 24.9
